Data: PubChem BioAssay (NCI)
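1) Cells in 96-well plates. 2) Compound, 48 h, 5 concentrations. 3) Linear interpolation between surrounding doses. 4) Unreached endpoint = highest concentration. Abbreviation: GI50, concentration required for 50% inhibition of growth. TGI marks complete inhibition of growth.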

Tests used:
Experiment in all cases: NCI tumour cell line growth inhibition, 48 h; in the data active = GI50 below about 0.43 µM; inactive = the rest
786-0 renal = test system: 786-0 renal
A498 renal = test system: A498 renal
A549 NSCLC = test system: A549 NSCLC
ACHN renal = test system: ACHN renal
BT-549 breast = test system: BT-549 breast
CAKI-1 renal = test system: CAKI-1 renal
CCRF-CEM leukemia = test system: CCRF-CEM leukemia
COLO 205 colon = test system: COLO 205 colon
DU-145 prostate = test system: DU-145 prostate
HCC-2998 colon = test system: HCC-2998 colon
HCT-116 colon = test system: HCT-116 colon
HCT-15 colon = test system: HCT-15 colon
HL-60(TB) leukemia = test system: HL-60(TB) leukemia
HOP-62 NSCLC = test system: HOP-62 NSCLC
HOP-92 NSCLC = test system: HOP-92 NSCLC
HS 578T breast = test system: HS 578T breast
HT29 colon = test system: HT29 colon
IGROV1 ovarian = test system: IGROV1 ovarian
K-562 leukemia = test system: K-562 leukemia
KM12 colon = test system: KM12 colon
LOX IMVI melanoma = test system: LOX IMVI melanoma
M14 melanoma = test system: M14 melanoma
MALME-3M melanoma = test system: MALME-3M melanoma
MCF7 breast = test system: MCF7 breast
MDA-MB-231 breast = test system: MDA-MB-231 breast
MDA-MB-435 = test system: MDA-MB-435
MOLT-4 leukemia = test system: MOLT-4 leukemia
NCI-H226 lung = test system: NCI-H226 lung
NCI-H23 lung = test system: NCI-H23 lung

O=C1NC(=NCCc2cccs2)S/C1=C\c1ccc2ncccc2c1
inactive: GI50 (786-0 renal) 14.5 µM | GI50 (A498 renal) 7.59 µM | GI50 (A549 NSCLC) 8.83 µM | GI50 (ACHN renal) 8.33 µM | GI50 (BT-549 breast) 6.39 µM | GI50 (CAKI-1 renal) 9.7 µM | GI50 (CCRF-CEM leukemia) 10.2 µM | GI50 (COLO 205 colon) 7.79 µM | GI50 (DU-145 prostate) 11.2 µM | GI50 (HCC-2998 colon) 22.1 µM | GI50 (HCT-116 colon) 5.92 µM | GI50 (HCT-15 colon) 8.02 µM | GI50 (HL-60(TB) leukemia) 9.17 µM | GI50 (HOP-62 NSCLC) 11.8 µM | GI50 (HOP-92 NSCLC) 4.7 µM | GI50 (HS 578T breast) 6.57 µM | GI50 (HT29 colon) 11.8 µM | GI50 (IGROV1 ovarian) 9.1 µM | GI50 (K-562 leukemia) 8.85 µM | GI50 (KM12 colon) 10.8 µM | GI50 (LOX IMVI melanoma) 8.12 µM | GI50 (M14 melanoma) 12.1 µM | GI50 (MALME-3M melanoma) > 25 µM | GI50 (MCF7 breast) 8.28 µM | GI50 (MDA-MB-231 breast) 19.7 µM | GI50 (MDA-MB-435) 6.97 µM | GI50 (MOLT-4 leukemia) 12.6 µM | GI50 (NCI-H226 lung) 8.21 µM | GI50 (NCI-H23 lung) 9.54 µM
22 µM: TGI (BT-549 breast)
> 22.3 µM: TGI (A498 renal)
> 21.8 µM: TGI (HS 578T breast)
> 25 µM: TGI (786-0 renal) | TGI (A549 NSCLC) | TGI (ACHN renal) | TGI (CAKI-1 renal) | TGI (CCRF-CEM leukemia) | TGI (COLO 205 colon) | TGI (DU-145 prostate) | TGI (HCC-2998 colon) | TGI (HCT-116 colon) | TGI (HCT-15 colon) | TGI (HL-60(TB) leukemia) | TGI (HOP-62 NSCLC) | TGI (HOP-92 NSCLC) | TGI (HT29 colon) | TGI (IGROV1 ovarian) | TGI (K-562 leukemia) | TGI (KM12 colon) | TGI (LOX IMVI melanoma) | TGI (M14 melanoma) | TGI (MALME-3M melanoma) | TGI (MCF7 breast) | TGI (MDA-MB-231 breast) | TGI (MDA-MB-435) | TGI (MOLT-4 leukemia) | TGI (NCI-H226 lung)
